Results as given in patent US7868135B2, “Compositions of lipopeptide antibiotic derivatives and methods of use thereof” (priority 2003, dated 2011).

Legend:
[1] = system: Enterococcus faecalis (EFS0004); experiment: Kill curve (bactericidal activity); assay type: cell-based; conditions: FIG. 4A
Procedure: (§1) Another measure of the antimicrobial properties of the lipopeptide derivative compounds of this disclosure includes kill curve measurements. Kill curve experiments generally involve exposure of microorganisms to varying concentrations (e.g., multiples of a compound's MIC) of a test compound. The microorganisms may be in culture at log phase of growth or may be in a particular host tissue (e.g., lung) for up to 24 hours before exposure to a test compound. At selected time points, a sample of each culture or tissue can be analyzed for a titre of viable microorganisms, which is generally gauged against the time required for a compound to inhibit growth or kill bacteria.
(§2) Kill curve experiments were performed with both Staphylococcus aureus (SAU0017) and Enterococcus faecalis (EFS0004) organisms grown to log phase, which were suspended in cation-adjusted Mueller-Hinton broth with additional 0.625 mM Ca^+2 to a concentration of 10^6 CFU/mL. The cultures were then exposed to varying concentrations (i.e., multiples of the MIC) of a lipopeptide derivative and incubated at about 37° C. At selected time points from about 0 hours to about 24 hours, a sample of each culture was analyzed for a titre of viable organisms (CFU/ml), which was compared against the time required for each compound to kill bacteria.

[2] = system: Staphylococcus aureus (SAU0017); experiment: Kill curve (bactericidal activity); assay type: cell-based; conditions: FIG. 5A
Procedure: as §1, §2

[3] = system: S. aureus Smith (SAU0017, ATCC 19636); experiment: Intraperitoneal murine model of protection against infection (ED50, Table 21); assay type: in vivo, Staphylococcus aureus; conditions: Staphylococcus aureus, ATCC19636, read-out: ED50 in Mice, S. aureus (SAU0017)
From the text: (§3) A variety of in vivo models may be used to assess the antimicrobial properties of lipopeptide derivative compounds of this disclosure. For example, antimicrobial compounds of the instant disclosure may be tested for efficacy by measuring a compound's ability to protect a mouse against a microbial infection, such as an infection or disease caused by or related to Gram-positive bacteria, including Staphylococcus aureus, Streptococcus pneumoniae, and Enterococcus faecalis. […] A certain period after infection, mice are then individually treated, for example intravenously (i.v.), with a lipopeptide derivative of this disclosure.
(§4) Antimicrobial lipopeptide derivatives of the instant invention were tested for antimicrobial activity against Gram-positive bacteria in an intraperitoneal (i.p.) murine model (i.e., bacteria were injected i.p. and lipopeptide compounds were administered intravenously (i.v.)). Mice were infected with Staphylococcus aureus, Streptococcus pneumoniae, or Enterococcus faecalis, which were prepared as follows: S. aureus Smith (SAU0017, ATCC 19636) were grown in culture overnight on trypticase soy broth, harvested and then resuspended in fresh media containing 5% mucin (Sigma Chemical Co.); S. pneumoniae (SPN 0032, ATCC 10813) were grown overnight on blood agar plates and re-suspended in 0.9% sterile saline; and E. faecalis EFS0040 (clinical isolate) were grown overnight in culture on blood heart infusion broth, washed and resuspended in 0.9% saline and mixed with equal volume of sterile fecal rat extract. Swiss CD1 mice were each infected i.p. with bacteria at the following doses: S. aureus at 10^6 CFU/mouse; S. pneumoniae at 10^2 CFU/mouse; or E. faecalis at 10^7.5 CFU/mouse. […] The ED50 for each compound was calculated using the method of Reed and Meunch (Am. J. Hyg. 27: 493, 1938).

[4] = system: S. pneumoniae (SPN 0032, ATCC 10813); experiment: as above; assay type: in vivo, Streptococcus pneumoniae; conditions: Streptococcus pneumoniae, ATCC10813, read-out: ED50 in Mice, S. pneumoniae (SPN0032)
From the text: as §3, §4

[5] = system: E. faecalis EFS0040 (clinical isolate); experiment: as above; assay type: in vivo, Enterococcus faecalis; conditions: Enterococcus faecalis, read-out: ED50 in Mice, E. faecalis (EFS0040)
From the text: as §3, §4

[6] = system: Streptococcus pneumoniae (SPN032, ATCC 1081); experiment: Intranasal murine lung infection model; assay type: in vivo; conditions: Streptococcus pneumoniae, ATCC1081, iv
Procedure: (§5) Other exemplary in vivo models of infection that may be used to assess, for example, the efficacy of an antimicrobial lipopeptide of the instant disclosure include the following: (A) a mouse (murine) model of lung infection (pneumonia) wherein the bacterial infection is administered intranasally (i.n.); (B) a murine thigh muscle model wherein the bacterial infection is administered intramuscularly (i.m.) in normal or neutropenic (immunocompromised) mice; and (C) a combination murine thigh muscle model (i.m. infection)/lung (i.n.) infection.
Antimicrobial lipopeptide derivatives of the instant invention were tested for antimicrobial activity against Gram-positive bacteria in an intranasal (i.n.) murine lung infection model (i.e., bacteria were innoculated i.n. and lipopeptide compounds were administered i.v.). Streptococcus pneumoniae (SPN032, ATCC 1081) were grown on 5% sheep blood agar plates for 24 h at 37° C., harvested and then resuspended in 0.9% saline. A group of eight Swiss CD1 mice were sedated with 2% isoflurane, and each was infected i.n. dropwise to the nares with 50 μl of the prepared bacterial inoculum (i.e., a dose of about 10^6 CFU/mouse). […] The ED50 (mg/kg) for each compound was calculated using the method of Reed and Meunch (Am. J. Hyg. 27: 493, 1938).

[7] = system: Staphylococcus aureus (SAU0017); experiment: Thigh infection model in neutropenic mice; assay type: in vivo; conditions: Staphylococcus aureus, iv
Procedure: as §5

Question: With `CN[C@H](CC(C)C)C(=O)N[C@H]1C(=O)N[C@@H](CC(N)=O)C(=O)N[C@H]2C(=O)N[C@H]3C(=O)N[C@H](C(=O)N[C@H](C(=O)O)c4cc(O)cc(O)c4-c4cc3ccc4O)[C@H](O)c3ccc(c(Cl)c3)Oc3cc2cc(c3O[C@@H]2O[C@H](CO)[C@@H](O)[C@H](O)[C@H]2O[C@H]2C[C@](C)(N)[C@H](O)[C@H](C)O2)Oc2ccc(cc2Cl)[C@H]1O` [Vancomycin, reference compound] as the compound, how does the “bactericidal or bacteriostatic in kill curve” value [1] read?
Answer: The value was “bacteriostatic”.

Question: And the “bactericidal or bacteriostatic in kill curve” value [2]?
Answer: Its value is “bacteriostatic”.

Question: What about the ED50 [3] of the same compound?
Answer: Its ED50 is 0.9 to 2.4 mg/kg.

Question: And the ED50 [4]?
Answer: The ED50 was 1.75 mg/kg.

Question: What about the ED50 [5] of the same compound?
Answer: Its ED50 is 2 mg/kg.

Question: And the ED50 [6]?
Answer: Its ED50 is 3 to 4.3 mg/kg.

Question: And the ED50 [7]?
Answer: The ED50 was 0.9 to 1.6 mg/kg.
